This passage reports MIC results from ChEMBL document CHEMBL1149100, “New 2,4-diamino-5-(2',5'-substituted benzyl)pyrimidines as potential drugs against opportunistic infections of AIDS and other immune disorders. Synthesis and species-dependent antifolate activity” (J Med Chem, 2004).

For the test, the system named is Mycobacterium avium. The test is described as follows: microbe, parasite or virus in culture.

As for `COc1cc(Cc2cnc(N)nc2N)cc(OC)c1OC` [TRIMETHOPRIM], the MIC was more than 64 µg/mL.
